Patent US20020086893A1, “Medicament” (SmithKline Beecham p.l.c., priority 1990, published 2002)
Structures can show the parent of a compound that is named as a salt.

Compound	melting point [°C]
CCCCc1ncc(CC(Cc2ccccc2)C(=O)O)n1Cc1ccccc1Cl (stereo not drawn) (as salt: hydrochloride) [Example 2, 3-[2-n-Butyl-1-{(2-chlorophenyl)methyl}-1H-imidazol-5-yl]-2-benzylpropanoic Acid]	118 to 120
CCCSc1ncc(C[C@H](NC(=O)CCC)C(=O)O)n1Cc1ccccc1Cl [Example 1, 3-[(2-Chlorophenyl)methyl]-2-propylthio-N-butyrylhistidine]	178 to 181
CCCCc1nc2cc(Br)cc(C(=O)O)c2n1Cc1ccccc1Cl [Example 4, 5-Bromo-2-n-butyl-1-(2-chlorophenyl)methyl-1H-benzimidazole-7-carboxylic Acid]	254 to 255
